Measured values as given in ChEMBL document CHEMBL5550164, “Enhancing anticancer treatment: Development of cRGD-Conjugated F-OH-Evo prodrugs for targeted delivery” (Bioorg Med Chem, 2024).
pIC50: −log10 of the molar value. Calls of active or inactive are those of the source. No cut-off for these calls is given here.

Columns and labels:
U-87 MG [1] = assay: Cytotoxicity against human U87 cells measured after 72 hrs by CCK8 assay; type: functional, cell-based, U-87MG ATCC
A549 = assay: Cytotoxicity against human A549 cells measured after 72 hrs by CCK8 assay; type: functional, cell-based; conditions: A549, 72 h
MCF7 = assay: Cytotoxicity against human MCF7 cells measured after 72 hrs by CCK8 assay; type: functional, cell-based; conditions: MCF7, 72 h
HeLa = assay: Cytotoxicity against human HeLa cells measured after 72 hrs by CCK8 assay; type: functional, cell-based
[2] = Drug uptake in human U87 cells at 20 nM by flow cytometry analysis; type: ADME, cell-based; conditions: u-87mg atcc, 0.02 µM
[3] = Drug uptake in human U87 cells by flow cytometry analysis; type: ADME, cell-based; conditions: u-87mg atcc
[4] = Drug uptake in human U87 cells incubated for 24 hrs by confocal laser scanning microscopy; type: ADME, cell-based; conditions: u-87mg atcc
[5] = Drug uptake in human MCF7 cells incubated for 24 hrs by confocal laser scanning microscopy; type: ADME, cell-based; conditions: mcf7, 24 h
U-87 MG [6] = assay: Inhibition of colony formation in human U87 cells at 25 nM pretreated for 24 hrs followed by media replacement for every 3 days by crystal violet staining based assay; type: functional, cell-based; conditions: U-87MG ATCC
U-87 MG [7] = assay: Induction of cell cycle arrest at G2 phase in human U87 cells at 25 nM incubated for 24 hrs by flow cytometry analysis; type: functional, U-87MG ATCC
U-87 MG [8] = assay: Inhibition of cell migration in human U87 cells at 25 nM after 16 hrs by scratch assay; type: functional, cell-based; conditions: U-87MG ATCC
[9] = Stability in serum (unknown origin) assessed as compound remaining after 180 mins by HPLC analysis; type: ADME, cell-free; conditions: read-out: Stability
U-87 MG [10] = assay: Inhibition of cell migration in human U87 cells at 25 nM incubated for 48 hrs by transwell assay relative to control; type: functional, U-87MG ATCC
U-87 MG [11] = assay: Potency index ratio of 3-fluoro-10-hydroxy-Evodiamine IC50 to test compound IC50 for cytotoxicity against human U87 cells; type: functional, U-87MG ATCC
[12] = biological target: T1, DNA topoisomerase 1 (Homo sapiens) (UniProt P11387); assay: Inhibition of topoisomerase 1 (unknown origin) mediated DNA relaxation using supercoiled pBR322 DNA as substrate incubated for 1 hr by EtBr staining based agarose gel electrophoresis method; conditions: dose 500-1000 µM
T1 sequence (whole entry): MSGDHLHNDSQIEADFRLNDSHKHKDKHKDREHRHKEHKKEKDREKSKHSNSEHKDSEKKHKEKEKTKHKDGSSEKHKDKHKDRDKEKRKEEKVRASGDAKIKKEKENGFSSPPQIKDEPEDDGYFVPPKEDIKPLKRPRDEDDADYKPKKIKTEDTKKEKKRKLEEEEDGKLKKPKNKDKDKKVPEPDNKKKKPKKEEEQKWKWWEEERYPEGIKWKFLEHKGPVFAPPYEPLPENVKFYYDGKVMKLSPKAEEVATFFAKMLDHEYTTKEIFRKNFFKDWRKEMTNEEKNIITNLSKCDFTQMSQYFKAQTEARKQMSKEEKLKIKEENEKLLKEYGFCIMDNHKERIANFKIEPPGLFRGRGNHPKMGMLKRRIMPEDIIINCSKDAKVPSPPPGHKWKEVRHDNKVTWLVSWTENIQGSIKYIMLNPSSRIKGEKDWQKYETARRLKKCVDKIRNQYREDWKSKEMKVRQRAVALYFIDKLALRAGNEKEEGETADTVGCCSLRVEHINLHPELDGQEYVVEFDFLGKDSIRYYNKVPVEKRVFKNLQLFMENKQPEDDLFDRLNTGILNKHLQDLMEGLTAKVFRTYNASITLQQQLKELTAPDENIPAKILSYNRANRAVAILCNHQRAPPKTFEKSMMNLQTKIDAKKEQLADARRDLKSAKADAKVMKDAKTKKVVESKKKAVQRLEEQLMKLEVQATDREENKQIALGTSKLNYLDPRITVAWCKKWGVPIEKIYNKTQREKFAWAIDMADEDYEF

Row | Compound | pIC50 (U-87 MG [1]) | pIC50 (A549) | pIC50 (MCF7) | pIC50 (HeLa) | also measured
1 | CN1c2ccc(F)cc2C(=O)N2CCc3c([nH]c4ccc(OC(=O)CSCC(=O)NC[C@@H]5NC(=O)[C@H](Cc6ccccc6)NC(=O)[C@H](CC(=O)O)NC(=O)CNC(=O)[C@H](CCCNC(=N)N)NC5=O)cc34)C21 (stereo partly drawn) | 6.89 | 7.29 | 7.51 | 7.13 | –
2 | CN1c2ccc(F)cc2C(=O)N2CCc3c([nH]c4ccc(OC(=O)CSCC(=O)NCC[C@@H]5NC(=O)[C@H](Cc6ccccc6)NC(=O)[C@H](CC(=O)O)NC(=O)CNC(=O)[C@H](CCCNC(=N)N)NC5=O)cc34)C21 (stereo partly drawn) | 7.28 | 7.42 | 7.22 | 7.27 | –
3 | CN1c2ccc(F)cc2C(=O)N2CCc3c([nH]c4ccc(OC(=O)CCSSCCC(=O)NCCC[C@@H]5NC(=O)[C@H](Cc6ccccc6)NC(=O)[C@H](CC(=O)O)NC(=O)CNC(=O)[C@H](CCCNC(=N)N)NC5=O)cc34)C21 (stereo partly drawn) | < 6.30 | < 6.30 | 6.69 | 6.49 | –
4 | CN1c2ccc(F)cc2C(=O)N2CCc3c([nH]c4ccc(OC(=O)CCCC(=O)NCC[C@@H]5NC(=O)[C@H](Cc6ccccc6)NC(=O)[C@H](CC(=O)O)NC(=O)CNC(=O)[C@H](CCCNC(=N)N)NC5=O)cc34)C21 (stereo partly drawn) | 6.84 | 6.46 | 7.15 | 6.51 | –
5 | CN1c2ccc(F)cc2C(=O)N2CCc3c([nH]c4ccc(OC(=O)CCCC(=O)NC[C@@H]5NC(=O)[C@H](Cc6ccccc6)NC(=O)[C@H](CC(=O)O)NC(=O)CNC(=O)[C@H](CCCNC(=N)N)NC5=O)cc34)C21 (stereo partly drawn) | 6.54 | 6.51 | 6.86 | 6.52 | –
6 | CN1c2ccc(F)cc2C(=O)N2CCc3c([nH]c4ccc(OC(=O)CSCC(=O)NCCCC[C@@H]5NC(=O)[C@H](Cc6ccccc6)NC(=O)[C@H](CC(=O)O)NC(=O)CNC(=O)[C@H](CCCNC(=N)N)NC5=O)cc34)C21 (stereo partly drawn) | 7.08 | 7.27 | 6.96 | 6.69 | –
7 | CN1c2ccc(F)cc2C(=O)N2CCc3c([nH]c4ccc(O)cc34)[C@H]21 | 6.86 | 7.65 | 8.28 | 7.03 | –
8 | CN1c2ccc(F)cc2C(=O)N2CCc3c([nH]c4ccc(OC(=O)CCSSCCC(=O)NC[C@@H]5NC(=O)[C@H](Cc6ccccc6)NC(=O)[C@H](CC(=O)O)NC(=O)CNC(=O)[C@H](CCCNC(=N)N)NC5=O)cc34)C21 (stereo partly drawn) | 6.39 | < 6.30 | 6.86 | 6.55 | –
9 | CCN(CC)c1ccc2cc(C(=O)NCCCCCC(=O)NCCCCC(NC(=O)CSCC(=O)Oc3ccc4[nH]c5c(c4c3)CCN3C(=O)c4cc(F)ccc4N(C)C53)C(=O)NCCC[C@@H]3NC(=O)[C@H](Cc4ccccc4)NC(=O)[C@H](CC(=O)O)NC(=O)CNC(=O)[C@H](CCCNC(=N)N)NC3=O)c(=O)oc2c1 (stereo partly drawn) | – | – | – | – | Drug uptake [2]: 44.8%; Drug uptake [3]: Dose-Dependent Effect and Tde; Drug uptake [4]: Active; Drug uptake [5]: Not Active
10 | CN1c2ccc(F)cc2C(=O)N2CCc3c([nH]c4ccc(OC(=O)CCSSCCC(=O)NCCCC[C@@H]5NC(=O)[C@H](Cc6ccccc6)NC(=O)[C@H](CC(=O)O)NC(=O)CNC(=O)[C@H](CCCNC(=N)N)NC5=O)cc34)C21 (stereo partly drawn) | 6.34 | 6.41 | 6.79 | 6.70 | –
11 | CN1c2ccc(F)cc2C(=O)N2CCc3c([nH]c4ccc(OC(=O)CSCC(=O)NCCC[C@@H]5NC(=O)[C@H](Cc6ccccc6)NC(=O)[C@H](CC(=O)O)NC(=O)CNC(=O)[C@H](CCCNC(=N)N)NC5=O)cc34)C21 (stereo partly drawn) | 7.52 | 7.34 | 7.08 | 6.90 | inhibition (U-87 MG [6]): Active; Activity (U-87 MG [7]): >90%; inhibition (U-87 MG [8]): Active; remaining at 3 h [9]: 60%; inhibition at 0.025 µM (U-87 MG [10]): 25.5%; Ratio IC50 (U-87 MG [11]): 5; inhibition [12]: Dose-Dependent Effect
12 | CN1c2ccc(F)cc2C(=O)N2CCc3c([nH]c4ccc(OC(=O)CCCC(=O)NCCCC[C@@H]5NC(=O)[C@H](Cc6ccccc6)NC(=O)[C@H](CC(=O)O)NC(=O)CNC(=O)[C@H](CCCNC(=N)N)NC5=O)cc34)C21 (stereo partly drawn) | 6.54 | 6.32 | 7.16 | 6.44 | –
13 | CN1c2ccc(F)cc2C(=O)N2CCc3c([nH]c4ccc(OC(=O)CCCC(=O)NCCC[C@@H]5NC(=O)[C@H](Cc6ccccc6)NC(=O)[C@H](CC(=O)O)NC(=O)CNC(=O)[C@H](CCCNC(=N)N)NC5=O)cc34)C21 (stereo partly drawn) | < 6.30 | 6.34 | 7.04 | 6.49 | –
14 | CN1c2ccc(F)cc2C(=O)N2CCc3c([nH]c4ccc(OC(=O)CCSSCCC(=O)NCC[C@@H]5NC(=O)[C@H](Cc6ccccc6)NC(=O)[C@H](CC(=O)O)NC(=O)CNC(=O)[C@H](CCCNC(=N)N)NC5=O)cc34)C21 (stereo partly drawn) | 6.61 | < 6.30 | 6.79 | < 6.30 | –
